This note sets out measurements from ChEMBL document CHEMBL4825721, “Dual Glycolate Oxidase/Lactate Dehydrogenase A Inhibitors for Primary Hyperoxaluria” (ACS Med Chem Lett, 2021).

One may read the IC50 as the concentration needed to halve the response being measured. As a reminder, the Ki is the equilibrium dissociation constant of an inhibitor or competing ligand from its target.

Structures are written as SMILES. Calls of active or inactive are those of the source. The rule behind the calls is not given here.

For data set [1], the target named is T1, 2-Hydroxyacid oxidase 1 (Homo sapiens, UniProt Q9UJM8).
T1 sequence (Q9UJM8 whole entry): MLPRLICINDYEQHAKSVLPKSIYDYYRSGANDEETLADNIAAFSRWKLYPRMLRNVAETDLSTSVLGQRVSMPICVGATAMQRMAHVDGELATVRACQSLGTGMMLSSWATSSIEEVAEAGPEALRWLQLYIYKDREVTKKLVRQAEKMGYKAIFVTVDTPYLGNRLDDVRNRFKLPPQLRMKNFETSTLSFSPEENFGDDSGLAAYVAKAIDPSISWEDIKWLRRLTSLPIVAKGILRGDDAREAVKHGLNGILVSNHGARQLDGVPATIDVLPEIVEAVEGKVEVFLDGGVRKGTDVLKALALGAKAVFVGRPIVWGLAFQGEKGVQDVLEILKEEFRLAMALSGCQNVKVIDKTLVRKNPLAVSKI
Nature of the data set: Inhibition of recombinant human GOX expressed in Escherichia coli C41 (DE3) using glycolate as substrate preincubated for 10 mins followed by substrate addition measured by Amplex red and horseradish peroxidase based fluorescence assay.

Data set [2] has as its target T2, L-lactate dehydrogenase A chain (Mus musculus, UniProt P06151). Nature of the data set: Inhibition of LDHA in wild type CD1 mouse primary hepatocyte assessed as inhibition of lactate production using pyruvate as substrate measured after 30 mins by LC-MS analysis. Type of data set: tissue-based.
For data set [3], the target named is L-lactate dehydrogenase A chain (Homo sapiens, UniProt P00338). Nature of the data set: Inhibition of recombinant human LDHA expressed in BL21 gold (DE3) using sodium pyruvate as substrate preincubated for 10 mins followed by sodium pyruvate and […] addition.
In data set [4] the target is T2, L-lactate dehydrogenase A chain. Kind of data set: Inhibition of recombinant mouse LDHA expressed in BL21 gold (DE3) using sodium pyruvate as substrate preincubated for 10 mins followed by sodium pyruvate and […] addition.
Data set [5] in a line: Inhibition of GOX/LDHA in Ag xt knockdown PH1 mouse primary hepatocyte assessed as reduction of oxalate production in the presence of glycolate measured after 2 hrs by ICMS analysis. The class given is tissue-based.
In a further data set the target is T3, Hydroxyacid oxidase 1 (Sus scrofa, UniProt I3LVF1).
T3 sequence (I3LVF1 whole entry): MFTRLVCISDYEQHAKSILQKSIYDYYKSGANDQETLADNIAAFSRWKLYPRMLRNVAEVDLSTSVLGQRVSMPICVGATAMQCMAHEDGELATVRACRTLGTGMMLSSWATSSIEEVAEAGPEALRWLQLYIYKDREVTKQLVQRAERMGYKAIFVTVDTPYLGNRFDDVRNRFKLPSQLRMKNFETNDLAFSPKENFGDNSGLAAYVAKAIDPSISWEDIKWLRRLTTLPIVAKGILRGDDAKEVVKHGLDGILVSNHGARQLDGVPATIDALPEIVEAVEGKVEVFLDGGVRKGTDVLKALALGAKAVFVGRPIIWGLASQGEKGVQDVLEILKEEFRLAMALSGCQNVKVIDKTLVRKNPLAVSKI
Nature of the data set: Inhibition of pig HAO1 in presence of NADH by spectrometry analysis.

In data set [6] the target is T4, 2-Hydroxyacid oxidase 1 (Mus musculus, UniProt Q9WU19).
T4 sequence (Q9WU19 whole entry): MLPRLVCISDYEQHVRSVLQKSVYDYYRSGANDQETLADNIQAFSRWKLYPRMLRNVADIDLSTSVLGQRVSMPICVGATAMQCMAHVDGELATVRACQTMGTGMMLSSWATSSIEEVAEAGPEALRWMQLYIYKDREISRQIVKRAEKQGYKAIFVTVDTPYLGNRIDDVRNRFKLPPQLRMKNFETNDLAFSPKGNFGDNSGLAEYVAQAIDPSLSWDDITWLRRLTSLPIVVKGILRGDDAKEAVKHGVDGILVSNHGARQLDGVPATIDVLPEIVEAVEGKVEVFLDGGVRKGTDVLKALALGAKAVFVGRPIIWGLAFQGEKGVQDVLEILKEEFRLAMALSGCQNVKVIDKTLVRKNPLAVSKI
Kind of data set: Inhibition of recombinant mouse GOX expressed in Escherichia coli C41 (DE3) using glycolate as substrate preincubated for 10 mins followed by substrate addition measured by Amplex red and horseradish peroxidase based fluorescence assay.

The subject of the next data set is Mus musculus. Kind of data set: In vivo inhibition of GOX/LDHA in C57BL/6N mouse assessed as increase in plasma glycolate levels at 100 mg/kg, po measured after 6 hrs. The class given is functional, organism-based.
Data set [7] is described as follows: Drug distribution in C57BL/6N mouse liver at 100 mg/kg, po measured after 6 hrs by LC-MS/MS analysis. Type of data set: ADME, organism-based. To be noted: in vivo.
The nature of data set [8]: In vivo inhibition of GOX/LDHA in C57BL/6N mouse assessed as increase in plasma glycolate levels at 100 mg/kg, po measured after 2 hrs. The class given is functional.
The nature of data set [9]: Drug distribution in C57BL/6N mouse liver at 100 mg/kg, po measured after 2 hrs by LC-MS/MS analysis. The class given is ADME, organism-based. To be noted: in vivo.
The target in data set [10] is T4, 2-Hydroxyacid oxidase 1. Nature of the data set: Non competitive inhibition of mouse glycolate oxidase in hyperoxaluric-Agxt knockdown mouse primary hepatocyte assessed as reduction in oxalate production in the presence of glycolate measured upto 72 hrs by enzymatic assay. The class given is tissue-based.

Consider `NS(=O)(=O)c1ccc(Cc2c(-c3ccc(F)c(-c4ccc(Sc5nn[nH]c5C(=O)O)cc4)c3)nn(-c3nc(C(=O)O)cs3)c2CC2CC2)cc1F`, for which the half-maximal inhibitory concentration (IC50) at 2-Hydroxyacid oxidase 1 [1] turned out to be 1.1 nM; in data set [2] it was 230 nM; in data set [3] it was 0.3 nM; in data set [4], 0.2 nM.

On to `NS(=O)(=O)c1ccc(Cc2c(-c3cccc(-c4ccccc4)c3)nn(-c3nc(C(=O)O)cs3)c2CC2CC2)cc1`, for which the IC50 in data set [5] was found to be 181 nM; in data set [4], 0.1 nM.

With `NS(=O)(=O)c1ccc(Cc2c(-c3ccc(F)c(-c4ccc(Oc5nn[nH]c5C(=O)O)cc4)c3)nn(-c3nc(C(=O)O)cs3)c2CC2CC2)cc1F`, the IC50 on 2-Hydroxyacid oxidase 1 [1] came out at 1.2 nM; in data set [2] it was 198 nM; in data set [3], 0.07 nM; in [4] it was 0.4 nM.

Consider `O=C1NC(=O)C(c2ccc(-c3ccc(Br)cc3)cc2)=C1O`, for which the IC50 at Hydroxyacid oxidase 1 was 87 nM.

Consider `NS(=O)(=O)c1ccc(Cc2c(-c3ccc(F)c(Oc4[nH]nnc4C(=O)O)c3)nn(-c3nc(C(=O)O)cs3)c2CC2CC2)cc1F`, for which the IC50 came to 11 nM at 2-Hydroxyacid oxidase 1 [1], 732 nM in [2], 0.4 nM in data set [3] and 0.3 nM in [4].

With `NS(=O)(=O)c1ccc(Cc2c(-c3cccc(Sc4[nH]nnc4C(=O)O)c3)nn(-c3nc(C(=O)O)cs3)c2CC2CC2)cc1F`, the IC50 on 2-Hydroxyacid oxidase 1 [1] stood at 4.7 nM; in data set [2], 136 nM; on 2-Hydroxyacid oxidase 1 [6] it was 7.7 nM; in [3], 0.5 nM; in data set [5] it was 88 nM; in data set [4] it was 0.7 nM. The inhibition result in the data set on Mus musculus is “inactive”. Moreover, the Drug uptake entry in [7] was “Not Active”.

Turning to `O=C(O)c1[nH]nnc1Sc1ccc(Cl)cc1`, the values for the IC50 (on 2-Hydroxyacid oxidase 1 [1]; at 2-Hydroxyacid oxidase 1 [6]; in data set [5]) were 6.7 nM, 14.6 nM and 149 nM, respectively. For the same compound, the “fold change (FC)” value in data set [8] amounted to 4. The Drug uptake entry in data set [9] was “Active”.

With `NS(=O)(=O)c1ccc(Cc2c(-c3ccc(F)c(-c4ccc(-c5nn[nH]c5C(=O)O)cc4)c3)nn(-c3nc(C(=O)O)cs3)c2CC2CC2)cc1F`, the IC50 was 3.6 nM at 2-Hydroxyacid oxidase 1 [1], 170 nM in data set [2], 0.3 nM in data set [3] and 0.4 nM in data set [4].

Take `NS(=O)(=O)c1ccc(Cc2c(-c3ccc(F)c(-c4cccc(Oc5[nH]nnc5C(=O)O)c4)c3)nn(-c3nc(C(=O)O)cs3)c2CC2CC2)cc1F`: the IC50 on 2-Hydroxyacid oxidase 1 [1] was 0.9 nM; in data set [2], 143 nM; in [3] it was 0.1 nM; in data set [4], 0.2 nM. For the same compound, in the data set on Mus musculus, the inhibition entry was “inactive”. In data set [7], the Drug uptake result was “Not Active”.

For the compound `O=C(O)c1nnsc1Sc1ccc(Cl)cc1`, the Ki at 2-Hydroxyacid oxidase 1 [10] worked out at 4.5 µM.
